The numbers were not newly measured in patent publication US11510865B2, “Magnolia bark extract as a hydrophobic ligand for preferential removal of gram negative bacteria from the oral cavity” (WM. WRIGLEY JR. COMPANY, priority 2015, dated 2022), which cites them from elsewhere.

The structures appear in SMILES notation.

The test system of this series is S. mutans (ATCC 10449). The following applies: increased from 0.01; Jongsma et al. 2015.

Consider `Oc1cc(Cl)ccc1Oc1ccc(Cl)cc1Cl` [triclosan], for which the removal rate was 0.05.
